This note sets out measurements from PubChem BioAssay (NCI).

Common to all, as to test: NCI tumour cell line growth inhibition, 48 h
Experiment [1] has as its system SF-295 CNS.
The subject of experiment [2] is MDA-MB-435.
In experiment [3] the test system is SNB-19 CNS.
Experiment [4] has as its system HT29 colon.
Experiment [5] has as its system UO-31 renal.
For experiment [6], the system named is SK-MEL-5 melanoma.
Experiment [7] has as its system M14 melanoma.
Experiment [8] relates to UACC-62 melanoma.
In experiment [9] the test system is COLO 205 colon.
Experiment [10] deals with LOX IMVI melanoma.

Molecules are shown by their SMILES. Several values for one entry are separate records, joined by “and”; a condition that tells them apart may be missing. Equal values may be shown once.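 Compound exposure: 48 hours, 5 concentrations, 96-well plates. GI50 marks 50% less growth. At the TGI there is no net growth.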

For the compound `CCc1ncc(CO)n1Cc1cccc2ccccc12`, the TGI in [1], in experiment [2], in experiment [3], in experiment [4], in [5] and in experiment [6] was over 100 µM throughout. The TGI in experiment [7], in experiment [8] and in experiment [9] was over 100 µM each time.

On to `CCOc1ccc2c(c1)C(=O)c1c-2n(CCCN=[N+]=[N-])c(=O)c2cc([N+](=O)[O-])ccc12`, for which the GI50 in [1] was 4.16 µM; in [2], 39.4 µM; in [3] it was 4.14 µM; in experiment [4] it was 21.4 µM; in experiment [5], 2.23 µM; in [6], 1.48 µM. Also, the GI50 is 3.63 µM in [7], 2.89 µM in [8], 3.02 µM in [10] and 54.1 µM in experiment [9]. In addition, the TGI in [1] was 74.4 µM; in [2], over 100 µM; in experiment [3] it was 85.5 µM; in [4] it was over 100 µM; in experiment [5], 11.5 µM; in experiment [6] it was 4.84 µM. In addition, the TGI in [7] was over 100 µM; in [8], 24.1 µM; in [10] it was over 100 µM; in [9] it was over 100 µM.

In the case of `CN1CCN(CCC=C2c3ccccc3Sc3ccc(S(=O)(=O)N(C)C)cc32)CC1`, the GI50 is 1.89 µM and 2.08 µM in [2]; 1.42 µM and 0.872 µM in experiment [4]; 3.46 µM and 4.23 µM in [5]; 1.58 µM in experiment [6]; 1.97 µM and 2.1 µM in experiment [7]; 1.66 µM and 1.76 µM in experiment [8]. The GI50 is 1.7 µM and 2.79 µM in experiment [10]; 1.44 µM and 1.66 µM in [9]. Besides, the TGI is 4.28 µM and 5.82 µM in experiment [2]; 3.26 µM and 2.91 µM in experiment [4]; 25.1 µM and 21.1 µM in experiment [5]; 2.95 µM and 3.02 µM in experiment [6]; 3.63 µM and 4.57 µM in experiment [7]; 3.21 µM and 3.48 µM in experiment [8]. In addition, the TGI in experiment [10] is 3.7 µM and 8.66 µM; in experiment [9] it was 2.82 µM and 3.7 µM.

As to `CC(C)C1=CC2=C(C(=O)C1=O)C13CCCC(C)(C)C1CC2OC3=O` (stereo not given), the TGI in experiment [1] is over 100 µM; in [2], 43.2 µM; in experiment [3], over 100 µM; in [4] it was 26.3 µM; in experiment [5], 40.8 µM; in experiment [6] it was 55.1 µM. For the same compound, the TGI is 70.6 µM in experiment [7], 27.4 µM in [8], 39.7 µM in experiment [10] and 34.8 µM in [9].

As for `CC1(C)C(CC(=O)O)CCCC1CC(=O)O` (stereo not given), the TGI in experiment [1], in experiment [2], in experiment [3], in experiment [4], in experiment [5] and in [6] was over 100 µM throughout. Besides, the TGI in experiment [7], in [8], in [10] and in [9] was over 100 µM in each case.

Turning to `Cc1[nH]nc(C(=O)N/N=C/c2ccccc2Cl)c1N=NN(C)C`, the TGI in experiment [1], in [2], in [3], in experiment [4], in [5] and in experiment [6] was over 100 µM each time. For the same compound, the TGI in experiment [7], in experiment [8], in experiment [10] and in experiment [9] was over 100 µM in each case.

On to `C[C@]12CC[C@H]3[C@@H](CC[C@]4(O)C[C@@H](O[C@@H]5O[C@H](CO)[C@@H](O[C@@H]6OC[C@@H](O)[C@H](O)[C@H]6O)[C@H](O)[C@H]5O)CC[C@]34C=O)[C@@]1(O)CC[C@@H]2C1=CC(=O)OC1`, for which the GI50 is 1.7 µM in experiment [1]; 1.71 µM in experiment [2]; 2.53 µM in experiment [3]; 1.82 µM in experiment [4]; 1.54 µM in [5]; 1.22 µM in [6]. Besides, the GI50 in experiment [7] was 2.38 µM; in [8] it was 1.61 µM; in experiment [10], 1.46 µM; in experiment [9], 1.98 µM. The TGI is 6.27 µM in [1]; 6.17 µM in experiment [2]; 9.27 µM in experiment [3]; 5.71 µM in experiment [4]; 5.01 µM in experiment [5]; 2.88 µM in experiment [6]. In addition, the TGI was determined as 10.5 µM in [7], 5.04 µM in experiment [8], 5.09 µM in experiment [10] and 7.24 µM in experiment [9].

On to `CC/C(=C(/c1ccc(OCCN(C)C)cc1)c1ccc(OC(=O)CCCCCCCCC(=O)c2c(C)[nH]c(/C=C3\N=C(c4ccc[nH]4)C=C3OC)c2C)cc1)c1ccccc1`, for which the GI50 in [2] is 4.63 µM; in [3], 12.1 µM; in experiment [4], 5.18 µM; in experiment [5] it was 4.45 µM; in experiment [6], 1.61 µM; in experiment [7], 2.15 µM. The GI50 in experiment [8] was 3.37 µM; in [10], 2.36 µM; in experiment [9], 8.2 µM. Moreover, the TGI in [2] is over 100 µM; in experiment [3] it was 50.7 µM; in experiment [4], over 100 µM; in [5] it was over 100 µM; in experiment [6], 3.2 µM; in [7], 4.48 µM. The TGI in experiment [8] is 18.1 µM; in experiment [10], 5.93 µM; in experiment [9] it was 78 µM.

Regarding `CC1[C@@H]2CC=C3[C@H]4CCC5Cc6nc7c(nc6C[C@@]5(C)C4CC(=O)[C@]32CO[C@]12OC(C)(C)CC2O)CC1CC[C@@H]2C3=C[C@H]4O[C@@]5(O[C@@](C)(CO)C[C@@H]5O)C(C)[C@@]4(O)[C@]3(C)[C@@H](O)CC2[C@]1(C)C7` (stereo not given in full), the GI50 in experiment [1] was 0.000124 µM and < 0.000365 µM; in experiment [2], 0.00111 µM; in experiment [3] it was 0.00459 µM and 0.00921 µM; in [4], 0.00282 µM and 0.00152 µM; in [6], 0.00235 µM and 0.00215 µM; in [7], 0.00131 µM. In addition, the GI50 in experiment [8] is 0.000316 µM and 0.000574 µM; in [10], 0.000361 µM and 0.000576 µM; in [9] it was 0.00217 µM and 0.00857 µM. Also, the TGI was 0.000434 µM and < 0.000365 µM in experiment [1]; 0.0168 µM in [2]; 0.537 µM and 0.443 µM in experiment [3]; 0.0487 µM and 0.027 µM in experiment [4]; 0.022 µM and 0.146 µM in experiment [6]; 0.0124 µM in experiment [7]. Moreover, the TGI was 0.00098 µM and 0.0062 µM in experiment [8]; 0.00721 µM and 0.0301 µM in experiment [9].
